Experiments:
Conditions in all cases: 48 h
NOMO1 [1] = assay: AUC of viability dose-response curve (% viability x log10 dose units); higher = less sensitive
In short: (§1)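 Leukemia cells adapted to each medium were seeded in 1536-well plates (500 or 1000 cells/well) and given library compounds in DMSO for 48 h at 37°C. The 11 threefold doses spanned 47 μM to 0.79 nM, and CellTiter-Glo One luminescence was normalised per plate to DMSO and cell-free wells before four-parameter log-logistic fitting on log10 dose. Area under the curve was integrated with the trapezoidal rule, scaling curves above full viability and removing curves that failed quality control.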

SEM cells [2] = assay: as above
In short: as §1

P12-Ichikawa [3] = assay: as above
In short: as §1

NOMO1 [4] = assay: cell viability relative to DMSO control; higher = less cytotoxic
In short: (§2)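 Library compounds in DMSO were pin-dosed into 1536-well plates (5 μl) holding NOMO1 or SEM (500 cells/well) or P12-Ichikawa (1000 cells/well) leukemia cells, across an 11-point threefold series of 47 μM to 0.79 nM. Each cell line had been adapted for at least four passages in each medium. CellTiter-Glo One luminescence was read after 48 h at 37°C. Viability is the per-plate percentage relative to DMSO wells, with cell-free wells as background.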

SEM cells [5] = assay: as above
In short: as §2

P12-Ichikawa [6] = assay: as above
In short: as §2

COc1ccc(Cc2nccc3cc(OC)c(OC)cc23)cc1OC
AUC of viability dose-response curve
Conditions | NOMO1 [1] | P12-Ichikawa [3] | SEM cells [2]
HPLM + 10% dialyzed FBS | 453 | 462 | 469
RPMI 5 mM glucose + 10% FBS | 458 | 466 | 460
RPMI 5 mM glucose + 10% dialyzed FBS | 454 | 458 | 465

cell viability [%]
Conditions | NOMO1 [4] | P12-Ichikawa [6] | SEM cells [5]
HPLM + 10% dialyzed FBS, 0.000781 µM | – | 122 | 105
HPLM + 10% dialyzed FBS, 0.00234 µM | – | 120 | 126
HPLM + 10% dialyzed FBS, 0.00702 µM | – | 117 | 111
HPLM + 10% dialyzed FBS, 0.0211 µM | – | 120 | 131
HPLM + 10% dialyzed FBS, 0.0632 µM | – | 125 | 126
HPLM + 10% dialyzed FBS, 0.19 µM | – | 122 | 124
HPLM + 10% dialyzed FBS, 0.569 µM | – | 119 | 127
HPLM + 10% dialyzed FBS, 1.71 µM | – | 116 | 128
HPLM + 10% dialyzed FBS, 5.12 µM | – | 115 | 134
HPLM + 10% dialyzed FBS, 15.4 µM | – | 107 | 121
HPLM + 10% dialyzed FBS, 46.1 µM | – | 96.5 | 88
RPMI 5 mM glucose + 10% FBS, 0.000781 µM | 115 | – | 110
RPMI 5 mM glucose + 10% FBS, 0.00234 µM | 118 | – | 125
RPMI 5 mM glucose + 10% FBS, 0.00702 µM | 124 | – | 117
RPMI 5 mM glucose + 10% FBS, 0.0211 µM | 117 | – | 120
RPMI 5 mM glucose + 10% FBS, 0.0632 µM | 105 | – | 131
RPMI 5 mM glucose + 10% FBS, 0.19 µM | 108 | – | 130
RPMI 5 mM glucose + 10% FBS, 0.569 µM | 138 | – | 118
RPMI 5 mM glucose + 10% FBS, 1.71 µM | 110 | – | 109
RPMI 5 mM glucose + 10% FBS, 5.12 µM | 103 | – | 123
RPMI 5 mM glucose + 10% FBS, 15.4 µM | 114 | – | 110
RPMI 5 mM glucose + 10% FBS, 46.1 µM | 23.3 | – | 53.9
RPMI 5 mM glucose + 10% dialyzed FBS, 0.000781 µM | – | 121 | 109
RPMI 5 mM glucose + 10% dialyzed FBS, 0.00234 µM | – | 114 | 107
RPMI 5 mM glucose + 10% dialyzed FBS, 0.00702 µM | – | 126 | 110
RPMI 5 mM glucose + 10% dialyzed FBS, 0.0211 µM | – | 126 | 110
RPMI 5 mM glucose + 10% dialyzed FBS, 0.0632 µM | – | 123 | 99.5
RPMI 5 mM glucose + 10% dialyzed FBS, 0.19 µM | – | 126 | 109
RPMI 5 mM glucose + 10% dialyzed FBS, 0.569 µM | – | 121 | 105
RPMI 5 mM glucose + 10% dialyzed FBS, 1.71 µM | – | 119 | 118
RPMI 5 mM glucose + 10% dialyzed FBS, 5.12 µM | – | 105 | 94
RPMI 5 mM glucose + 10% dialyzed FBS, 15.4 µM | – | 111 | 111
RPMI 5 mM glucose + 10% dialyzed FBS, 46.1 µM | – | 78.5 | 54.3

Clc1cccc(-c2nnnn2Cc2cccnc2)c1Cl
AUC of viability dose-response curve
Conditions | NOMO1 [1] | P12-Ichikawa [3] | SEM cells [2]
HPLM + 10% dialyzed FBS | 362 | 397 | 359
RPMI 5 mM glucose + 10% FBS | 365 | 385 | 348
RPMI 5 mM glucose + 10% dialyzed FBS | 357 | 382 | 375

cell viability [%]
Conditions | NOMO1 [4] | P12-Ichikawa [6] | SEM cells [5]
HPLM + 10% dialyzed FBS, 0.000781 µM | 82.8 | 88.7 | 79.7
HPLM + 10% dialyzed FBS, 0.00234 µM | 92.7 | 96 | 81.9
HPLM + 10% dialyzed FBS, 0.00702 µM | 96.4 | 92.4 | 67
HPLM + 10% dialyzed FBS, 0.0211 µM | 99.9 | 95.5 | 92.9
HPLM + 10% dialyzed FBS, 0.0632 µM | 92.4 | 94.9 | 101
HPLM + 10% dialyzed FBS, 0.19 µM | 93.1 | 87.4 | 103
HPLM + 10% dialyzed FBS, 0.569 µM | 79 | 77.9 | 92.6
HPLM + 10% dialyzed FBS, 1.71 µM | 57.2 | 74.1 | 57.7
HPLM + 10% dialyzed FBS, 5.12 µM | 49.8 | 74.5 | 49.4
HPLM + 10% dialyzed FBS, 15.4 µM | 48.6 | 70.4 | 50.2
HPLM + 10% dialyzed FBS, 46.1 µM | 33.1 | 56.6 | 45
RPMI 5 mM glucose + 10% FBS, 0.000781 µM | 80 | 88.5 | 101
RPMI 5 mM glucose + 10% FBS, 0.00234 µM | 87.1 | 91.2 | 92
RPMI 5 mM glucose + 10% FBS, 0.00702 µM | 89.5 | 86.6 | 70.1
RPMI 5 mM glucose + 10% FBS, 0.0211 µM | 84.1 | 91.1 | 102
RPMI 5 mM glucose + 10% FBS, 0.0632 µM | 91.5 | 96.1 | 95.3
RPMI 5 mM glucose + 10% FBS, 0.19 µM | 89 | 93.7 | 95
RPMI 5 mM glucose + 10% FBS, 0.569 µM | 90.5 | 94.9 | 74.6
RPMI 5 mM glucose + 10% FBS, 1.71 µM | 62.9 | 65.7 | 46.4
RPMI 5 mM glucose + 10% FBS, 5.12 µM | 55.8 | 57 | 40.4
RPMI 5 mM glucose + 10% FBS, 15.4 µM | 57.2 | 60.6 | 42
RPMI 5 mM glucose + 10% FBS, 46.1 µM | 48.5 | 56.7 | 35.9
RPMI 5 mM glucose + 10% dialyzed FBS, 0.000781 µM | 81.5 | 86.1 | 87.5
RPMI 5 mM glucose + 10% dialyzed FBS, 0.00234 µM | 83.6 | 91.3 | 85.7
RPMI 5 mM glucose + 10% dialyzed FBS, 0.00702 µM | 91.1 | 93.9 | 75
RPMI 5 mM glucose + 10% dialyzed FBS, 0.0211 µM | 93.6 | 95.2 | 93.4
RPMI 5 mM glucose + 10% dialyzed FBS, 0.0632 µM | 83.7 | 93.8 | 91.7
RPMI 5 mM glucose + 10% dialyzed FBS, 0.19 µM | 83.2 | 88.9 | 99.4
RPMI 5 mM glucose + 10% dialyzed FBS, 0.569 µM | 83.9 | 86.4 | 102
RPMI 5 mM glucose + 10% dialyzed FBS, 1.71 µM | 52.5 | 64.3 | 62
RPMI 5 mM glucose + 10% dialyzed FBS, 5.12 µM | 59.1 | 61.8 | 56
RPMI 5 mM glucose + 10% dialyzed FBS, 15.4 µM | 58 | 65.7 | 58.4
RPMI 5 mM glucose + 10% dialyzed FBS, 46.1 µM | 47.8 | 48.6 | 46.6

Reference: the supplement of paper PMC11451515
